The record followed here is PubChem BioAssay AID488890 (Southern Research Specialized Biocontainment Screening …, 2010).

Results filed as inconclusive are left out. The source made the active and inactive calls. No rule for the calls is given here.

In this assay the test system is Mycobacterium tuberculosis non-replicating, growth inhibition. Description: growth inhibition of non-replicating M. tuberculosis (AID 488890).
As for `COc1cccc(COC(=O)CCNC(=O)c2ccc(Cl)cc2)c1OC`, the IC50 – broadly, the concentration at which inhibition is half-maximal – was 11.8 µM (inactive).
For the compound `CC(C)(C)NC(=O)C(=O)NNC(=O)COc1ccc(Br)cc1`, the IC50 was 12 µM (inactive).
`CC1(O)CC(c2ccc(Cl)cc2)=NN1C(=O)c1ccc([N+](=O)[O-])cc1` (configuration not stated): the IC50 is 0.18 µM.
In the case of `O=C(CCC1CCCC1)NCc1ccccn1` it was 3.4 µM; in that of `COc1cc(/C=N/N(C)C)ccc1OC(=O)c1cccs1`, 8.4 µM; in that of `CC(NCc1ccc(OCc2ccc(Cl)cc2)cc1)C(O)c1ccccc1` (configuration not stated), 6.84 µM.
As for `Cc1ccc(Sc2ncccc2N)cc1`, the figure is 41.3 µM (inactive); as for `O=C(Nc1ccccc1F)c1ccc([N+](=O)[O-])s1`, 0.78 µM.
In the case of `Cc1ccc(CNC(=O)c2cnccn2)cc1` it was 1.36 µM; in that of `COc1cc(OC)cc(C(=O)Oc2c(CN3CCOCC3)cc(Cl)c3cccnc23)c1`, 7.87 µM.
Consider `CN(C)CCCN(C(=O)CCc1ccccc1)c1nc2ccc(Cl)cc2s1`, for which the IC50 was 12.7 µM (inactive).
As for `Cc1ccc(-n2c(C)cc(C3=NNC(=NC4CC4)SC3)c2C)cc1C`, the figure is 7.03 µM; as for `O=C(Oc1ccc(F)cc1)c1ccc2c(=O)n3c(nc2c1)CCC3`, 2.49 µM.
In the case of `CCOC(=O)Cn1c(C)c(Br)c(=O)c2cccc(C)c21` it was 3.76 µM; in that of `CCn1c(NC(=O)c2ccccc2)nc2ccccc21`, 4.44 µM; in that of `COc1cccc2sc(Nc3nnc(-c4cccs4)o3)nc12`, 4.87 µM.
As for `CCCCCCCCCCn1ccc(=N)cc1`, the figure is 14.5 µM (inactive); as for `Cc1[nH]n(-c2cccc(Cl)c2)c(=O)c1/C=N/n1c(C)nc2ccccc2c1=O`, 19.5 µM (inactive).
With `CCOC(=O)Cc1c(C)nc2c(-c3ccc(Cl)cc3)c[nH]n2c1=O`, the IC50 was 3.93 µM.
In the case of `CCC(=O)Nc1nc2ccccc2n1Cc1ccccc1Cl` it was 4.32 µM; in that of `O=C(COC(=O)c1ccc(Br)o1)NCCCc1ccccc1`, 6.5 µM.
As for `Nc1nnnn1/N=C/C(Br)=C/c1ccccc1`, the figure is 13.5 µM (inactive); as for `C=C1Cn2c(nnc2-c2ccc(Cl)cc2)S1`, 12.8 µM (inactive).
On to `O=c1c2c(nc3c(-c4ccccc4)c[nH]n13)CCCC2`, for which the IC50 was 21.1 µM (inactive).
As for `COc1ccc2nc(C)cc(N/N=C/c3ccccc3)c2c1`, the concentration for half-maximal inhibition (IC50) is 2.6 µM.
In the case of `O=C(N/N=C/c1cccc([N+](=O)[O-])c1O)c1cccs1` it was 2.34 µM; in that of `Cc1ccc(NC(=O)c2ccc([N+](=O)[O-])o2)cc1C`, 0.28 µM.
As for `CS(=O)(=O)Cc1nc2ccccc2oc1=O`, the IC50 is 3.18 µM.
Turning to `c1ccc(-c2nc3c(ccc4ccccc43)[nH]2)nc1`, the IC50 is 17.8 µM (inactive).
As for `Cc1ccc(Oc2c(C(N)=O)cc([N+](=O)[O-])cc2[N+](=O)[O-])cc1`, the figure is 2.2 µM.
In the case of `COc1n[nH]c(C(=O)Nc2cc(F)ccc2C)c1[N+](=O)[O-]` it was 12.4 µM (inactive); in that of `CCOC(=O)Cc1c(C)nc2c(-c3cccc(Br)c3)c[nH]n2c1=O`, 4.13 µM; in that of `COc1ccc(OC(=O)c2cc3cc(Cl)ccc3oc2=O)cc1`, 10.1 µM (inactive).
In the case of `Cc1cc(Br)ccc1OCC(=O)NNC(=O)C(=O)Nc1ccccc1` it was 1.22 µM.
In the case of `O=C(CCNc1ccc(Cl)cc1)c1cccs1`, the IC50 was 3.79 µM.
For the compound `CC(=O)Oc1ccc(N2C(=O)c3cccc4c([N+](=O)[O-])ccc(c34)C2=O)cc1`, the IC50 is 0.37 µM.
In the case of `O=C(COc1ccc2ccccc2c1)N1CCCC1` it was 14.7 µM (inactive).
In the case of `Cc1ccc(/C=C2\SC(N3CCCC3)=NC2=O)cc1` it was 6.15 µM; in that of `CCOC(=O)c1cc(-c2csc(COc3ccccc3)n2)on1`, less than 0.1 µM; in that of `O=C1c2cc([N+](=O)[O-])cc3cc([N+](=O)[O-])cc(c23)C(=O)N1c1ccccn1`, 3.46 µM.
In the case of `O=C(OCC(=O)N1CCc2ccccc2C1)c1cccc([N+](=O)[O-])c1` it was 9.6 µM; in that of `CCCOC(=O)c1ccc(-c2ccc(C=O)o2)cc1`, 1.27 µM; in that of `CC(C)c1ccc2c(c1)C(N1CCNCC1)Cc1ccc(F)cc1S2` (configuration not stated), 14.5 µM (inactive).
As for `CN1CCN(C2Cc3ccccc3Sc3cc(C(F)(F)F)ccc32)CC1` (configuration not stated), the IC50 is 12 µM (inactive).
As for `O=C(O)c1ccc(-n2nc(C(F)(F)F)c3c2CCCC3)cc1`, the figure is 34.2 µM (inactive); as for `CN(C)/C=C1/C(=O)N(c2ccc([N+](=O)[O-])cc2)N=C1c1ccccc1`, 17.7 µM (inactive); as for `CCc1nnc(N/N=C/c2ccc(N3CCC(C)CC3)c([N+](=O)[O-])c2)n1N`, 3.83 µM.
As for `Cc1nc(C)c(/C(O)=C/c2nc3ccccc3oc2=O)s1`, the figure is 1.07 µM; as for `O=C(Cc1ccc(F)cc1)Nc1ccc(Cl)cn1`, 14.2 µM (inactive).
As for `O=C(COc1ccc(F)cc1)N/N=C/c1cccc2cccnc12`, the IC50 was 3.84 µM.
As for `O=C(N/N=C/c1cccs1)c1cncc(Br)c1`, the figure is 4.85 µM; as for `COC(=O)C(O)(c1ccc(NC(=S)NC(=O)c2ccccc2)cc1)C(F)(F)F` (configuration not stated), 14.8 µM (inactive); as for `Nc1ccc2cc(Br)ccc2c1`, 0.44 µM.
In the case of `CC(=O)OCCN(C)c1cc(SC(C)C)c2nonc2c1[N+](=O)[O-]` it was 13.7 µM (inactive); in that of `Clc1ccc(CN2C3=NCCCN3c3ccccc32)cc1`, 12.3 µM (inactive).
As to `CC(OC(=O)c1ccc2c(=O)n3c(nc2c1)CCCCC3)C(=O)Nc1ccc(Cl)cn1` (configuration not stated), the 50% inhibitory concentration (IC50) was 3.69 µM.
In the case of `Cc1cc(Br)ccc1OCCCCN1CCCCC1` it was 14.4 µM (inactive); in that of `Cc1cc(-c2c(C)[nH]n(-c3ccccc3)c2=O)n[nH]1`, 29.2 µM (inactive); in that of `O=C(N/N=C/c1ccccc1O)c1cccc(C(F)(F)F)c1`, less than 0.1 µM.
As for `Cc1cc(Cl)ccc1NNC(=O)c1cccs1`, the figure is 14.5 µM (inactive); as for `Cc1ccc(C(C)NC(=O)c2cc3ccccc3oc2=O)cc1C` (configuration not stated), 3.07 µM; as for `Cc1nn(-c2ccccc2)nc1C(=O)c1c(C)[nH]n(-c2ccccc2)c1=O`, 4.19 µM.
As for `Cc1cc(C=C2C(=O)NC(=S)NC2=O)c(C)n1C1CCCC1`, the figure is 3.88 µM; as for `CCOC(=O)c1csc(COc2ccccc2Cl)n1`, 1.57 µM.
`O=C(N/N=C/c1c(O)ccc2ccccc12)c1ccc(Br)o1`: the IC50 is less than 0.1 µM.
As for `COc1ccc2[nH]c3c(C)c4ccncc4c(C)c3c2c1`, the figure is 0.59 µM; as for `CC(=O)Nc1nc2ccccc2n1Cc1ccc(C)cc1`, 3.21 µM; as for `COC(=O)COc1cccc(/C=N/NC(=O)CCSc2ccccc2)c1`, 9.71 µM.
As for `Cc1nc(C(=O)Nc2ccccc2)sc1C(=O)Nc1ccccc1`, the figure is 9.77 µM; as for `O=C(COc1ccc(F)cc1)Nc1ccc2c(c1)OCCO2`, 6.38 µM; as for `O=C(N=Nc1c(O)[nH]c2ccc(Br)cc12)c1ccccc1-n1cccc1`, 5.94 µM.
In the case of `CSc1nc2ccc(NC(=O)C3CC(=O)N(Cc4ccccc4)C3)cc2s1` (configuration not stated) it was 13.6 µM (inactive); in that of `C=CCNc1nnc(Sc2ncccc2[N+](=O)[O-])s1`, 4.7 µM.
In the case of `COc1cccc2cc(-c3nc4ccccc4[nH]3)c(=O)oc12`, the IC50 was less than 0.2 µM.
As for `c1ccc(Nc2nc(-c3ccccn3)cs2)cc1`, the figure is 2.66 µM.
In the case of `Cn1nnnc1Sc1ncnc2scc(-c3ccc[nH]3)c12` it was 8.43 µM; in that of `Cc1nc2ccc(NC(=O)COc3cccc(F)c3)cc2s1`, 7.87 µM.
For `COc1cccc(OCc2nnc(-c3cccs3)o2)c1`, the IC50 is 1.57 µM.
In the case of `CCOc1cccc2cc(C(=O)NCc3ccccc3)c(=N)oc12` it was 10.2 µM (inactive); in that of `O=C(OCC#CCSc1nnc(-c2ccncc2)o1)c1cccs1`, 4.13 µM; in that of `CCOC(=O)COc1ccc(/C=C2\NC(=S)N(CC)C2=O)cc1`, 7.01 µM.
In the case of `COc1cccc(NC(=O)COC(=O)Cc2ccc(Br)cc2)c1`, the IC50 is 12.7 µM (inactive).
In the case of `Cc1ccc(S(=O)(=O)/N=C(\CCl)N2CCOCC2)cc1` it was 11.9 µM (inactive).
With `Cc1ccc2c(c1)c(C1=c3ccccc3=NC1=O)c(O)n2C`, the IC50 is 4.42 µM.
As for `O=C(O)CCCCCN1C(=O)CSC1=S`, the figure is 19.9 µM (inactive); as for `CCOC(=O)Nc1ccc2c(c1)N(C(=O)CCN1CCOCC1)c1ccccc1S2=O` (configuration not stated), 3.62 µM.
On to `O=C(COC(=O)CC1CCCC1)Nc1ccc(Cl)cn1`, for which the IC50 is 17.2 µM (inactive).
Regarding `O=C(OCn1nnc2ccccc2c1=O)c1ccc(Br)o1`, the IC50 was 11.6 µM (inactive).
As for `O=C(C/C=N\OCc1ccc([N+](=O)[O-])cc1)Nc1ccc(F)cc1F`, the figure is 9.1 µM.
With `COC(CNC(=O)c1ccc2c3c(onc13)-c1ccccc1C2=O)OC`, the IC50 was 2.4 µM.
For `S=c1[nH]cnc2sc(-c3ccccc3)cc12`, the IC50 was 33.3 µM (inactive).
As for `COc1ccc(C(=O)CCS(=O)(=O)c2ccc(C)cc2)cc1OC`, the figure is 4.05 µM; as for `CCOCC(=O)Nc1nc2ccc(C)cc2s1`, 2.06 µM.
For `O=C(COc1ccccc1)NNc1nc2ccccc2s1`, the IC50 is 34.2 µM (inactive).
In the case of `CC(C)[C@H]1CN=C2N(C[C@H](C)NC(=O)CCC3CCCCC3)[C@H](Cc3ccc(O)cc3)CN21` it was 19.3 µM (inactive); in that of `O=C(CCS(=O)(=O)Cc1ccccc1)Nc1ncc([N+](=O)[O-])s1`, 1.97 µM; in that of `Cc1n[nH]c(C)c1CCOc1ccc(C(C)C)cc1`, 19.5 µM (inactive).
`CCOc1ccc(-c2nnc(NC(=O)c3ccc(OCC(C)C)c(OC)c3)o2)cc1`: the IC50 was 24.1 µM (inactive).
For the compound `Cc1ccc2nc(/N=C(\N)NC(=O)NC3CCCCC3)nc(C)c2c1`, the IC50 was 8.34 µM.
In the case of `COc1ccc(-c2cc(O)cc(O)c2)cc1`, the IC50 is 6.15 µM.
In the case of `CCCNC(=O)OCC12CC3CC(CC(C3)C1)C2` it was 0.65 µM; in that of `CC1=NN(C(=O)c2ccc(Cn3nc(C)c(Br)c3C)cc2)C(O)(C(F)(F)F)C1` (configuration not stated), 0.58 µM.
